Like-named read-outs stand apart in the source and are kept apart here. Blank lines part the entries; values can stand above or below the compound they belong to.
Key:
MDAMB468 = assay: cells; conditions: Homo sapiens, MDA-MB-468, 48 h, read-out: III / CEY1410
MDAMB453 = assay: cells; conditions: Homo sapiens, MDA-MB-453, 48 h, read-out: III / CEY1410
SKBR3 = assay: cells; conditions: Homo sapiens, SK-BR-3, 48 h, read-out: III / CEY1410
HCC1143 = assay: cells; conditions: Homo sapiens, HCC1143, 48 h, read-out: III / CEY1410
DU4475 = assay: cells; conditions: Homo sapiens, DU-4475, 48 h, read-out: III / CEY1410
HCC70 = assay: cells; conditions: Homo sapiens, HCC70, 48 h, read-out: III / CEY1410
MDAMB231 = assay: cells; conditions: Homo sapiens, MDA-MB-231, 48 h, read-out: III / CEY1410
HCC1419 = assay: cells; conditions: Homo sapiens, HCC1419, 48 h
T47D = assay: cells; conditions: Homo sapiens, T47D, 48 h, read-out: III / CEY1410
BT20 = assay: cells; conditions: Homo sapiens, BT-20, 48 h, read-out: III / CEY1410
MDAMB436 = assay: cells; conditions: Homo sapiens, MDA-MB-436, 48 h
HS578T = assay: cells; conditions: Homo sapiens, Hs-578T, 48 h, read-out: III / CEY1410
MCF7 = assay: cells; conditions: Homo sapiens, MCF7, 48 h
BT474 = assay: cells; conditions: Homo sapiens, BT-474, 48 h
HCC1569 = assay: cells; conditions: Homo sapiens, HCC1569, 48 h
HCC1937 = assay: cells; conditions: Homo sapiens, HCC1937, 48 h, read-out: III / CEY1410
HCC1954 = assay: cells; conditions: Homo sapiens, HCC1954, 48 h
MDAMB361 = assay: cells; conditions: Homo sapiens, MDA-MB-361, 48 h, read-out: III / CEY1410
ALDH1A2 = ALDH1A2 (Homo sapiens, UniProt O94788); assay: HPLC retinaldehyde dehydrogenase assay; assay type: biochemical
ALDH1A2, sequence (O94788 whole entry): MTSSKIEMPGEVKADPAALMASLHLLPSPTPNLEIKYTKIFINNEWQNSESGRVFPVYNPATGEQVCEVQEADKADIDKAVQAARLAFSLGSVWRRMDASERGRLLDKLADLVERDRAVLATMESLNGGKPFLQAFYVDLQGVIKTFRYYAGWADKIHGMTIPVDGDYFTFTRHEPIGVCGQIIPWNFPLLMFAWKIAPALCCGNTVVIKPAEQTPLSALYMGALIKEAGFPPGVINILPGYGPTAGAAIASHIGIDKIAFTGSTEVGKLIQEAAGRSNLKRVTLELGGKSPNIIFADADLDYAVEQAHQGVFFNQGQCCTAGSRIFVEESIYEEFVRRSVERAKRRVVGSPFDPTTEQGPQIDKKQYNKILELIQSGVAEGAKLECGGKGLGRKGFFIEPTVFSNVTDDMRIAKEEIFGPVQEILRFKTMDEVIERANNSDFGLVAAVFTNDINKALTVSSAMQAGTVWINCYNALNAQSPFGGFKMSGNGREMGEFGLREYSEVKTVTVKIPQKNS

ALDH1A1 = ALDH1A1 (Homo sapiens, UniProt P00352); assay: HPLC retinaldehyde dehydrogenase assay; assay type: biochemical
ALDH1A1, sequence (P00352 whole entry): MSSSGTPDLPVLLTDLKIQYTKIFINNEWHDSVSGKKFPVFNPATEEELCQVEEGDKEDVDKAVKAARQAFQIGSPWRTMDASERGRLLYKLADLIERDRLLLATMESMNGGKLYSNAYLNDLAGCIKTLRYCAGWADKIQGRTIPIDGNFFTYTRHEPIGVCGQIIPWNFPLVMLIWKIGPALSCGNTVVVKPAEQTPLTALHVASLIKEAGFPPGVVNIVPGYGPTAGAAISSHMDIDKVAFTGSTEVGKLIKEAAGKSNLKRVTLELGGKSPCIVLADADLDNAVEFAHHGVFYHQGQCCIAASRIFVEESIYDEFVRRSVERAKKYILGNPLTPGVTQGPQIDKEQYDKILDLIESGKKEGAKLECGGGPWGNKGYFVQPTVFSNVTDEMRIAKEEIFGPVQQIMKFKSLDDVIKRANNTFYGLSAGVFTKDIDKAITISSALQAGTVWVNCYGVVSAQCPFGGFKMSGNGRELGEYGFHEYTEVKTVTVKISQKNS

ALDH1A3 = ALDH1A3 (Homo sapiens, UniProt P47895); assay: HPLC retinaldehyde dehydrogenase assay; assay type: biochemical
ALDH1A3, sequence (P47895 whole entry): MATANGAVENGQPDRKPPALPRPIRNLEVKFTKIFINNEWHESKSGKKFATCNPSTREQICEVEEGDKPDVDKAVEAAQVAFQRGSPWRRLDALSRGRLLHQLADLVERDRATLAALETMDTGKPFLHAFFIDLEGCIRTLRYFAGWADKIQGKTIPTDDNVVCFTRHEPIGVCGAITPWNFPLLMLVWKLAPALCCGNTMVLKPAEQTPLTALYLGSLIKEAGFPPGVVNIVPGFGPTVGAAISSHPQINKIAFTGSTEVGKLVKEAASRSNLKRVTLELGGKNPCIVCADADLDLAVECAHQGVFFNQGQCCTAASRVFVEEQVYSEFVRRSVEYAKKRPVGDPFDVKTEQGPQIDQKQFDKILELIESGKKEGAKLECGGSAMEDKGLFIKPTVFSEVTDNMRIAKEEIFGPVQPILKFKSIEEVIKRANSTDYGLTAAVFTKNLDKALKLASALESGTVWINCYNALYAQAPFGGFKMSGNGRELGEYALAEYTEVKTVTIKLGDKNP

MAXFHER 2690 = assay: cells; conditions: read-out: DIMATE
MAXFTN 508 = assay: cells; conditions: read-out: DIMATE
MAXFTN 401 = assay: cells; conditions: read-out: DIMATE
MAXFHER 4035 = assay: cells; conditions: read-out: DIMATE
MAXFHER BR64 = assay: cells; conditions: read-out: DIMATE
MAXFTN BR120 = assay: cells; conditions: read-out: DIMATE
MAXFTN 1384 = assay: cells; conditions: read-out: DIMATE
MAXFTN 449 = assay: cells; conditions: read-out: DIMATE
MAXFHER 1162 = assay: cells; conditions: read-out: DIMATE
MAXFTN 2990 = assay: cells; conditions: read-out: DIMATE
ALDH3A1 = ALDH3A1 (Homo sapiens, UniProt P30838); assay: fluorimetric NADPH assay, global inhibition fit; assay type: biochemical; conditions: non-competitive; 4-nitrobenzaldehyde substrate, 1 mM NADP+, 37 °C, pH 7.2
ALDH3A1, sequence (P30838 whole entry): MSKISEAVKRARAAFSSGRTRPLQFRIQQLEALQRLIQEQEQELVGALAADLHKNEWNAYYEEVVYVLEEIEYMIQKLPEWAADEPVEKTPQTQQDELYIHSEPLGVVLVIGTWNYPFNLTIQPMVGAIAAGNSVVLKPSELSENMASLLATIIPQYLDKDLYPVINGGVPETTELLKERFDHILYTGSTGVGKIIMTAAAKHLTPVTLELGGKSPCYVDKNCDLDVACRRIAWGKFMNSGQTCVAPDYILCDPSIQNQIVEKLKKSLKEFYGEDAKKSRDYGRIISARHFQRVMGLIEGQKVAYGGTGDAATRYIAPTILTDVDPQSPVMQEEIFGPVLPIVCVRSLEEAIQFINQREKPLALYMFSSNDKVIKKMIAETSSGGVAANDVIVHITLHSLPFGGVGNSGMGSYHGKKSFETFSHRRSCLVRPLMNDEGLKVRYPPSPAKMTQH

Compound: CN(C)C(C)(C)C#CC(=O)O [CEY1410]
- GI50 (MDAMB468): > 30 µM
- GI50 (MDAMB453): > 30 µM
- GI50 (SKBR3): > 30 µM
- GI50 (HCC1143): > 30 µM
- GI50 (DU4475): > 30 µM
- GI50 (HCC70): > 30 µM
- GI50 (MDAMB231): > 30 µM
- GI50 (HCC1419; read-out: III / CEY1410): > 30 µM
- GI50 (T47D): > 30 µM
- GI50 (BT20): > 30 µM
- GI50 (MDAMB436; read-out: III / CEY1410): > 30 µM
- GI50 (HS578T): > 30 µM
- GI50 (MCF7; read-out: III / CEY1410): > 30 µM
- GI50 (BT474; read-out: III / CEY1410): > 30000 nM
- GI50 (HCC1569; read-out: III / CEY1410): > 30 µM
- GI50 (HCC1937): > 30 µM
- GI50 (HCC1954; read-out: III / CEY1410): > 30 µM
- GI50 (MDAMB361): > 30 µM

- IC50 (ALDH1A2): 6.4 ± 0.9 µM
- IC50 (ALDH1A1): 25 ± 2 µM
- IC50 (ALDH1A3): 5.7 ± 0.5 µM
- GI50 (HCC1419; read-out: I / DIMATE): 7.9 µM
- GI50 (MDAMB436; read-out: I / DIMATE): 3.9 µM
- GI50 (MCF7; read-out: I / DIMATE): 10.4 µM
- GI50 (BT474; read-out: I / DIMATE): 3000 nM
- GI50 (HCC1569; read-out: I / DIMATE): 5 µM
- GI50 (HCC1954; read-out: I / DIMATE): > 30 µM
Compound: CSC(=O)C#CC(C)(C)N(C)C [DIMATE, 4-dimethylamino-4-methyl-pent-2-ynthioic acid-S-methyl ester]
- GI50 (MAXFHER 2690): 2650 nM
- GI50 (MAXFTN 508): 1110 nM
- GI50 (MAXFTN 401): 520 nM
- GI50 (MAXFHER 4035): 2550 nM
- GI50 (MAXFHER BR64): 1050 nM
- GI50 (MAXFTN BR120): 4.06 µM
- GI50 (MAXFTN 1384): 7.32 µM
- GI50 (MAXFTN 449): 460 nM
- GI50 (MAXFHER 1162): 1420 nM
- GI50 (MAXFTN 2990): 4.29 µM

- Ki (ALDH3A1): 233 ± 16 µM
Compound: ABD0171
